Patent US8952024B2, “Herbicidal pyrimidone derivatives” (E I du Pont de Nemours and Company, priority 2009, dated 2015)
Read-outs that look alike come from different tables or passages of the source.

How the values were obtained:
Assay type in all cases: in vivo
[1] = tested on: sunflower (common oilseed sunflower, Helianthus annuus); assay: Test B pre-/postemergence plant response; conditions: Preemergence
Summary of the method: (§1)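 Response scores were assigned visually after 13 to 15 days in a greenhouse, comparing treated pots with controls on a 0–100 scale where 100 denotes complete control. Preemergence treatments went onto freshly seeded loam/sand soil; postemergence treatments onto plants 2 to 18 cm tall.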

[2] = tested on: morningglory (Ipomoea coccinea); assay: Test B pre-/postemergence plant response; conditions: for pest or weed control at 16 g/ha: 16 g ai/ha; for pest or weed control at 16 g/ha / pest or weed control at 31 g/ha / pest or weed control at 62 g/ha: read-out: Plant response rating, Morningglory; for pest or weed control at 31 g/ha: 31 g ai/ha; for pest or weed control at 62 g/ha: 62 g ai/ha
Summary of the method: as §1

[3] = tested on: nightshade (eastern black nightshade, Solanum ptycanthum); assay: Test B pre-/postemergence plant response; conditions: Preemergence
Summary of the method: as §1

[4] = tested on: bermudagrass (Cynodon dactylon); assay: Test B pre-/postemergence plant response; conditions: for pest or weed control at 16 g/ha: 16 g ai/ha; for pest or weed control at 31 g/ha: 31 g ai/ha; for pest or weed control at 62 g/ha: 62 g ai/ha
Summary of the method: as §1

[5] = tested on: canarygrass (Phalaris minor); assay: Test B postemergence plant response; conditions: Phalaris minor, post-emergence, 360 h, Postemergence
Summary of the method: (§2)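 Plants grown in peat/vermiculite medium were sprayed postemergence at 2–18 cm height (1- to 4-leaf stage). After 13–15 days in the greenhouse, response was rated visually against untreated controls on a 0–100 scale (0 no effect, 100 complete control).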

[6] = tested on: chickweed (Stellaria media); assay: Test B postemergence plant response; conditions: Stellaria media, post-emergence, 360 h, Postemergence
Summary of the method: as §2

[7] = tested on: windgrass (Apera spica-venti); assay: Test B postemergence plant response; conditions: Apera spica-venti, post-emergence, 360 h, Postemergence
Summary of the method: as §2

[8] = tested on: winter barley (Hordeum vulgare); assay: Test B postemergence plant response; conditions: Hordeum vulgare, post-emergence, Postemergence, read-out: Plant response rating, Barley
Summary of the method: as §2

[9] = tested on: rice (Oryza sativa); assay: Test B flooded paddy test; conditions: Oryza sativa
Summary of the method: (§3)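 Plants were grown to the 2-leaf stage, then pots were flooded to 3 cm above the soil and compounds were applied directly into the paddy water. That depth was held throughout. After 13 to 15 days in a greenhouse, injury was visually rated against controls on a 0–100 scale.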

[10] = tested on: ducksalad (Heteranthera limosa); assay: Test B flooded paddy test; conditions: Heteranthera limosa, 360 h
Summary of the method: as §3

[11] = tested on: barnyardgrass (Echinochloa crus-galli); assay: Test B flooded paddy test; conditions: Echinochloa crus-galli, 360 h
Summary of the method: as §3

[12] = tested on: umbrella sedge (Cyperus difformis); assay: Test B flooded paddy test; conditions: Cyperus difformis, 360 h
Summary of the method: as §3

[13] = 31 g ai/ha, scale 0 to 100 (0 no effect, 100 complete control)
[14] = 62 g ai/ha, scale 0 to 100, 0 no effect, 100 complete control
[15] = Ipomoea, pre-emergence, Preemergence, scale 0 to 100 (0 no effect, 100 complete control)
[16] = Preemergence, 125 g ai/ha, 0 to 100 scale
[17] = Cynodon dactylon, pre-emergence, Preemergence, scale 0 to 100 (0 no effect, 100 complete control), read-out: Plant response rating, Bermudagrass
[18] = 125 g ai/ha, visual rating after 13 to 15 days, scale 0 (no effect) to 100 (complete control)

## O=C1CCCC(O)=C1C(=O)c1cnc(-c2ccccc2)n(-c2ccccc2)c1=O [Compound 2, 5-[(2-hydroxy-6-oxo-1-cyclohexen-1-yl)carbonyl]-2,3-diphenyl-4(3H)-pyrimidinone]
[1]; [13]
  Plant response rating, Sunflower: 50
[1]; [14]
  Plant response rating, Sunflower: 70
[1]; 125 g ai/ha, 0 to 100 scale
  Sunflower plant response rating: 90
[2]; Ipomoea, post-emergence, Postemergence, 0 to 100 scale
  pest or weed control at 16 g/ha: 55%
[2]; Ipomoea, post-emergence, Postemergence, scale 0 to 100 (0 no effect, 100 complete control)
  pest or weed control at 31 g/ha: 70%
[2]; Ipomoea, post-emergence, Postemergence, scale 0 (no effect) to 100 (complete control), 13 to 15 days
  pest or weed control at 62 g/ha: 80%
[2]; Ipomoea, post-emergence, Postemergence, 125 g ai/ha, visual rating after 13 to 15 days, scale 0 (no effect) to 100 (complete control)
  pest or weed control at 125 g/ha: 95%
[2]; [15]
  pest or weed control at 16 g/ha: 0%
  pest or weed control at 31 g/ha: 0%
[2]; Ipomoea, pre-emergence, Preemergence, scale 0 to 100, 0 no effect, 100 complete control
  pest or weed control at 62 g/ha: 20%
[2]; [16]
  Morningglory plant response rating: 75
[3]; 16 g ai/ha, scale 0 to 100, 0 no effect, 100 complete control
  Plant response rating, Nightshade: 55
[3]; [13]
  Plant response rating, Nightshade: 98
[3]; [14]
  Plant response rating, Nightshade: 100
[3]; 125 g ai/ha, 0 to 100 scale
  Nightshade plant response rating: 100
[4]; Cynodon dactylon, post-emergence, Postemergence, 0 to 100 scale, read-out: Plant response rating, Bermudagrass
  pest or weed control at 16 g/ha: 40%
[4]; Cynodon dactylon, post-emergence, Postemergence, scale 0 to 100 (0 no effect, 100 complete control), read-out: Plant response rating, Bermudagrass
  pest or weed control at 31 g/ha: 80%
[4]; Cynodon dactylon, post-emergence, Postemergence, scale 0 (no effect) to 100 (complete control), 13 to 15 days, read-out: Plant response rating, Bermudagrass
  pest or weed control at 62 g/ha: 85%
[4]; Cynodon dactylon, post-emergence, Postemergence, 125 g ai/ha, scale 0 to 100 (0 no effect, 100 complete control), 13 to 15 days, read-out: Plant response rating, Bermudagrass
  pest or weed control at 125 g/ha: 90%
[4]; [17]
  pest or weed control at 16 g/ha: 25%
  pest or weed control at 31 g/ha: 98%
[4]; Cynodon dactylon, pre-emergence, Preemergence, scale 0 to 100, 0 no effect, 100 complete control, read-out: Plant response rating, Bermudagrass
  pest or weed control at 62 g/ha: 100%
[4]; [16]
  Bermudagrass plant response rating: 100
[5]; 16 g ai/ha, 0 to 100 scale, read-out: Plant response rating, Canarygrass
  pest or weed control at 16 g/ha: 20%
[5]; 31 g ai/ha, scale 0 to 100 (0 no effect, 100 complete control), read-out: Plant response rating, Canarygrass
  pest or weed control at 31 g/ha: 40%
[5]; 62 g ai/ha, scale 0 (no effect) to 100 (complete control), 13 to 15 days, read-out: Plant response rating, Canarygrass
  pest or weed control at 62 g/ha: 50%
[5]; [18]
  pest or weed control at 125 g/ha: 80%
[6]; 16 g ai/ha, 0 to 100 scale, read-out: Plant response rating, Chickweed
  pest or weed control at 16 g/ha: 70%
[6]; 31 g ai/ha, scale 0 to 100 (0 no effect, 100 complete control), read-out: Plant response rating, Chickweed
  pest or weed control at 31 g/ha: 75%
[6]; 62 g ai/ha, scale 0 (no effect) to 100 (complete control), 13 to 15 days, read-out: Plant response rating, Chickweed
  pest or weed control at 62 g/ha: 90%
[6]; [18]
  pest or weed control at 125 g/ha: 95%
[7]; 16 g ai/ha, 0 to 100 scale, read-out: Plant response rating, Windgrass
  pest or weed control at 16 g/ha: 10%
[7]; 31 g ai/ha, scale 0 to 100 (0 no effect, 100 complete control), read-out: Plant response rating, Windgrass
  pest or weed control at 31 g/ha: 10%
[7]; 62 g ai/ha, scale 0 (no effect) to 100 (complete control), 13 to 15 days, read-out: Plant response rating, Windgrass
  pest or weed control at 62 g/ha: 15%
[7]; [18]
  pest or weed control at 125 g/ha: 50%
[8]; 16 g ai/ha, 0 to 100 scale
  plant injury at 16 g/ha: 0%
[8]; [13]
  plant injury at 31 g/ha: 10%
[8]; 62 g ai/ha, scale 0 (no effect) to 100 (complete control), 13 to 15 days
  plant injury at 62 g/ha: 20%
[8]; 125 g ai/ha, scale 0 to 100 (0 no effect, 100 complete control), 13 to 15 days
  plant injury at 125 g/ha: 30%
[9]; 250 g ai/ha, flooded paddy test, visual rating on 0 to 100 scale (0 no effect, 100 complete control) after 13 to 15 days, read-out: Plant response rating, Flood, Rice
  plant injury at 250 g/ha: 8%
[9]; Flood (flooded paddy test), 31 g ai/ha, scale of 0 to 100 where 0 is no effect and 100 is complete control, 13 to 15 days, read-out: Plant response rating, Rice
  plant injury at 31 g/ha: 0%
[9]; Flood (flooded paddy test), 62 g ai/ha, scale 0 to 100, 0 is no effect, 100 is complete control, 13 to 15 days, read-out: Plant response rating, Rice
  plant injury at 62 g/ha: 0%
[9]; Flood (flooded paddy test), 125 g ai/ha, scale 0 to 100, 0 is no effect, 100 is complete control, 13 to 15 days, read-out: Plant response rating, Rice
  plant injury at 125 g/ha: 0%
[10]; 250 g ai/ha, flooded paddy test, visual rating on 0 to 100 scale (0 no effect, 100 complete control) after 13 to 15 days, read-out: Plant response rating, Flood, Ducksalad
  pest or weed control at 250 g/ha: 78%
[10]; Flood (flooded paddy test), 31 g ai/ha, scale of 0 to 100 where 0 is no effect and 100 is complete control, 13 to 15 days, read-out: Plant response rating, Ducksalad
  pest or weed control at 31 g/ha: 15%
[10]; Flood (flooded paddy test), 62 g ai/ha, scale 0 to 100, 0 is no effect, 100 is complete control, 13 to 15 days, read-out: Plant response rating, Ducksalad
  pest or weed control at 62 g/ha: 40%
[10]; Flood (flooded paddy test), 125 g ai/ha, scale 0 to 100, 0 is no effect, 100 is complete control, 13 to 15 days, read-out: Plant response rating, Ducksalad
  pest or weed control at 125 g/ha: 58%
[11]; 250 g ai/ha, flooded paddy test, visual rating on 0 to 100 scale (0 no effect, 100 complete control) after 13 to 15 days, read-out: Plant response rating, Flood, Barnyardgrass
  pest or weed control at 250 g/ha: 0%
[11]; Flood (flooded paddy test), 31 g ai/ha, scale of 0 to 100 where 0 is no effect and 100 is complete control, 13 to 15 days, read-out: Plant response rating, Barnyardgrass
  pest or weed control at 31 g/ha: 0%
[11]; Flood (flooded paddy test), 62 g ai/ha, scale 0 to 100, 0 is no effect, 100 is complete control, 13 to 15 days, read-out: Plant response rating, Barnyardgrass
  pest or weed control at 62 g/ha: 0%
[11]; Flood (flooded paddy test), 125 g ai/ha, scale 0 to 100, 0 is no effect, 100 is complete control, 13 to 15 days, read-out: Plant response rating, Barnyardgrass
  pest or weed control at 125 g/ha: 0%
[12]; 250 g ai/ha, flooded paddy test, visual rating on 0 to 100 scale (0 no effect, 100 complete control) after 13 to 15 days, read-out: Plant response rating, Flood, Sedge, Umbrella
  pest or weed control at 250 g/ha: 75%
[12]; Flood (flooded paddy test), 31 g ai/ha, scale of 0 to 100 where 0 is no effect and 100 is complete control, 13 to 15 days, read-out: Plant response rating, Sedge, Umbrella
  pest or weed control at 31 g/ha: 0%
[12]; Flood (flooded paddy test), 62 g ai/ha, scale 0 to 100, 0 is no effect, 100 is complete control, 13 to 15 days, read-out: Plant response rating, Sedge, Umbrella
  pest or weed control at 62 g/ha: 0%
[12]; Flood (flooded paddy test), 125 g ai/ha, scale 0 to 100, 0 is no effect, 100 is complete control, 13 to 15 days, read-out: Plant response rating, Sedge, Umbrella
  pest or weed control at 125 g/ha: 45%
